The source made the active and inactive calls. The calls are words filed in the database; no cut-off is given here.
Assays:
Type in all cases: functional, cell-based
NCI-H322 [1] = experiment: Cytotoxicity against human NCI-H322 cells assessed as cell growth inhibition at 40 uM after 48 hrs by SRB assay
A549 [2] = experiment: Cytotoxicity against human A549 cells assessed as cell growth inhibition after 48 hrs by SRB assay; conditions: for IC50: A549, 48 h
[3] = (§1) Cytotoxicity against human NCI-H322 cells assessed as cell growth inhibition after 48 hrs by SRB assay; conditions: NCI-H322, 48 h
A549 [4] = experiment: Cytotoxicity against human A549 cells assessed as cell growth inhibition at 40 uM after 48 hrs by SRB assay
A549 [5] = experiment: Cytotoxicity against human A549 cells assessed as reduction of total cell quantity at 40 uM after 48 hrs by inverted microscopic analysis
A549 [6] = experiment: Induction necrosis in human A549 cells at 40 uM after 48 hrs by LDH release assay
NCI-H322 [7] = experiment: Cytotoxicity against human NCI-H322 cells assessed as reduction of total cell quantity at 40 uM after 48 hrs by inverted microscopic analysis
NCI-H322 [8] = experiment: as §1
A549 [9] = experiment: Induction morphological changes in human A549 cells at 40 uM after 48 hrs by inverted microscopic analysis
NCI-H322 [10] = experiment: Induction morphological changes in human NCI-H322 cells at 40 uM after 48 hrs by inverted microscopic analysis
NCI-H322 [11] = experiment: Induction necrosis in human NCI-H322 cells at 40 uM after 48 hrs by LDH release assay

## COc1ccc(-c2cc3c(=O)n(CCOCCO)c(-c4ccccc4)cn3n2)cc1
NCI-H322 [1]
  growth inhibition (GI): Active
A549 [2]
  IC50: 50.3 µM
[3]
  IC50: 68.7 µM
A549 [4]
  growth inhibition (GI): Active

## O=c1c2cc(-c3ccccc3)nn2cc(-c2ccccc2)n1CCOCCO
A549 [5]
  Activity: Active
NCI-H322 [1]
  growth inhibition (GI): Active
A549 [6]
  Activity: inactive
A549 [2]
  growth inhibition (GI): Dose-dependent effect
  IC50: 41.1 µM
NCI-H322 [7]
  Activity: Active
[3]
  IC50: 45.6 µM
NCI-H322 [8]
  growth inhibition (GI): Dose-dependent effect
A549 [9]
  Activity: Active
NCI-H322 [10]
  Activity: Active
NCI-H322 [11]
  Activity: inactive
A549 [4]
  growth inhibition (GI): Active

## COc1ccc(-c2cc3c(=O)n(CCOCCO)c(-c4ccc(OC)cc4)cn3n2)cc1
A549 [5]
  Activity: Active
NCI-H322 [1]
  growth inhibition (GI): Active
A549 [6]
  Activity: inactive
A549 [2]
  growth inhibition (GI): Dose-dependent effect
  IC50: 34.7 µM
NCI-H322 [7]
  Activity: Active
[3]
  IC50: 50.6 µM
NCI-H322 [8]
  growth inhibition (GI): Dose-dependent effect
A549 [9]
  Activity: Active
NCI-H322 [10]
  Activity: Active
NCI-H322 [11]
  Activity: inactive
A549 [4]
  growth inhibition (GI): Active

## O=c1c2cc(-c3ccc(Cl)cc3)nn2cc(-c2ccccc2)n1CCOCCO
A549 [5]
  Activity: Active
NCI-H322 [1]
  growth inhibition (GI): Active
A549 [6]
  Activity: inactive
A549 [2]
  growth inhibition (GI): Dose-dependent effect
  IC50: 24.2 µM
NCI-H322 [7]
  Activity: Active
[3]
  IC50: 29.4 µM
NCI-H322 [8]
  growth inhibition (GI): Dose-dependent effect
A549 [9]
  Activity: Active
NCI-H322 [10]
  Activity: Active
NCI-H322 [11]
  Activity: inactive
A549 [4]
  growth inhibition (GI): Active

## O=c1c2cc(-c3ccccc3)nn2cc(-c2ccc(Cl)cc2)n1CCOCCO
NCI-H322 [1]
  growth inhibition (GI): Active
A549 [2]
  IC50: 62.6 µM
[3]
  IC50: 91 µM
A549 [4]
  growth inhibition (GI): Active

## COc1ccc(-c2cn3nc(-c4ccccc4)cc3c(=O)n2CCOCCO)cc1
NCI-H322 [1]
  growth inhibition (GI): Active
A549 [2]
  IC50: 59 µM
[3]
  IC50: 74.7 µM
A549 [4]
  growth inhibition (GI): Active

## COc1ccc(-c2cc3c(=O)n(CCOCCO)c(-c4ccc(Cl)cc4)cn3n2)cc1
NCI-H322 [1]
  growth inhibition (GI): Active
A549 [2]
  IC50: 49.7 µM
[3]
  IC50: 76.9 µM
A549 [4]
  growth inhibition (GI): Active

— ChEMBL document CHEMBL1795277, “Synthesis of novel pyrazolo[1,5-a]pyrazin-4(5H)-one derivatives and their inhibition against growth of A549 and H322 lung cancer cells” (Bioorg Med Chem Lett, 2011)
